From US20230165836A1, “ALPHA-2 ADRENERGIC RECEPTOR AGONISTS FOR THE TREATMENT OF CANCER” (UNIVERSITÉ CATHOLIQUE DE LOUVAIN, priority 2020, published 2023) come the findings set out here.

The test system of one experiment is CT26 colon cancer. Briefly: CT26 colon cancer tumor growth (FIGS. 15-16). The note with it: CT26 colon cancer, FIGS. 15A, 16A. The format is in vivo, C57BL/6J mice. The text has this: Tumor infiltration of CD8+cells evaluated at the day of sacrifice by FACS (FIG. 15B). Tumor growth of CT26 colon cancer in NSG mice treated with PBS (Control), clonidine, clonidine mixed with yohimbine, or yohimbine alone (FIG. 15C). FIGS. 16A-C is a set of curves and histograms showing the tumor growth of CT26 colon cancer in C57BL/6J mice treated with PBS (Control, circles), guanabenz (diamonds), guanabenz mixed with yohimbine (light grey inverted triangles), or yohimbine alone (dark grey inverted triangles) (FIG. 16A); the tumor infiltration of CD8+ cells evaluated at the day of sacrifice by FACS (FIG. 16B); and the tumor growth of CT26 colon cancer in NSG mice treated with PBS (Control), guanabenz, guanabenz mixed with yohimbine, or yohimbine alone (FIG. 16C). […] For evaluation of yohimbine on the effect of clonidine and guanabenz, the mice were randomized into different groups when tumors size arrived around 100 mm^3 and received daily injections of guanabenz (5 mg/kg, i.p.), yohimbine (10 mg/kg), a mix of guanabenz (5 mg/kg, i.p.) and yohimbine (10 mg/kg, i.p.), clonidine (5 mg/kg, i.p.), a mix of clonidine (5 mg/kg, i.p.) and yohimbine (10 mg/kg, i.p.) or vehicle control.

Experiment [1] concerns immune-resistant autochthonous melanoma tumors (TiRP). Briefly: TiRP melanoma with adoptive cell transfer (ACT) of P1A-specific CD8+T cells. It is filed as in vivo, TiRP mice. Conditions: 5 mg/kg. An excerpt:
TiRP mice have been created by crossing Ink4a/Are^flox/flox mice with mice carrying a transgenic construct controlled by the tyrosinase promoter and driving the expression of H-Ras ^12V and Trapl a which encodes a MAGE-type tumor antigen P1A; the promoter is separated from the coding region by a stop cassette made of a floxed self-deleting CreER (Huijbers et al., 2006, Cancer Res 66, 3278-3286). Those mice were backcrossed to a B10.D2 background and bred to homozygosity. TCRP1A mice heterozygous for the H-2Ld/P1A35-43-specific TCR transgene were kept on the B10.D2;Rag1^−/− background (Shanker et al., 2004, J Immunol 172, 5069-5077). BALB/c mice were used in tumor transplantation experiments. TiRP-derived T429.11 transplanted melanoma model: T429.11 clone was derived from an induced Amela TiRP tumor referred to as T429. It was cloned from the T429 induced melanoma primary tumor line. Two million of T429.11 tumor cells were injected subcutaneously into recipient mice for tumor establishment (Zhu et al., 2017, Nat Commun. 10; 8(1):1404). Adra2a tm1Bkk mice (Strain Name: B6.129-Adra2a tm1Bkk /J, # 004367) were obtained from Jackson Laboratory (Bar Harbor, Me., USA).
A fresh solution of 40H-Tamoxifen was prepared by dissolving 40H-Tamoxifen (Imaginechem®) in 100% ethanol and mineral oil (ratio 1:9) followed by 30 min sonication, and injected subcutaneously (2 mg/200 uL per mouse) in the neck area of gender-matched 7 weeks old TiRP mice. Tumor appearance was monitored daily and tumors were measured three times/week. Tumor volume (in mm^3) was calculated by the following formula: Volume=width^2×length/2.
For the adoptive cell transfer (ACT), P1A-specific (TCRP1A) CD8+T cells were isolated from spleens and lymph nodes of TCRP1A mice as described hereinabove, and stimulated in vitro by co-culture with irradiated (10,000 rads) L1210.P1A.B7-1 cells (Gajewski et al., 1995, J Immunol 154, 5637-5648) at 1:2 ratio (0.5×10^5 CD8+T cells and 10^5 L1210.P1A.B7-1 cells per well in 48-well plates) in IMDM (GIBCO®) containing 10% fetal bovine serum supplemented with L-arginine (0.55 mM, Merck®), L-asparagine (0.24 mM, Merck®), glutamine (1.5 mM, Merck®), beta-mercaptoethanol (50 μM, Sigma Aldrich®), 50 U mL^−1 penicillin and […] mL^−1 streptomycin (Life Technologies®). Four days later, TCRP1A CD8+T cells were purified on a Lymphoprep gradient (StemCell®) and 10^7 living cells were injected intravenously in 200 μL PBS in TiRP-tumor bearing mice on the day of randomization.
TiRP-tumor bearing mice received adoptive cell transfer (ACT) of 10^7 P1A-specific activated CD8+T cells and daily injections of vehicle control, clonidine (5 mg/kg, i.p.), or clonidine (5 mg/kg, i.p.) combined with phentolamine (5 mg/kg, i.p.), when the tumor size was around 500 mm^3, until the day of sacrifice. Tumor size was monitored every 2 days. Mice were sacrificed when the tumor in control group reached around 2,000 mm^3.
TiRP-tumor bearing mice received adoptive cell transfer (ACT) of 10^7 of P1A-specific activated CD8+T cells. Daily injections of 5 mg/kg i.p. of romifidine or clonidine were thus administered from the day of the ACT, when the tumor size was around 500 mm^3, until the day of sacrifice. As shown on FIGS. 5A-B, following romifidine or clonidine administration, tumor infiltration of CD8+T cells was increased. […]

Experiment [2] concerns myelofibrosis induced by romiplostim. Conditions: romiplostim 1 mg/kg s.c. days 1, 8, 15, 5 mg/kg i.p. daily for two weeks from day 8, wildtype mice. The procedure:
8-week female C57BL/6 J wild-type and Adra2a KO mice were administered saline or 1 mg/kg of romiplostim by a subcutaneous injection into the neck skin on days 1, 8 and 15. Clonidine or guanabenz were administrated i.p. at a dose of 5 mg/kg daily for two weeks starting from day 8. Mice were dissected on day 22 and peripheral blood was drawn by cardiac puncture, the platelet concentration was measured by Cell Counter Analyzer MS9-5V.

A further experiment has as its system lung cancer. Briefly: Tumor model: lung cancer. The format is in vivo, mice. The note with it: lung cancer (FIG. 22D, 23D). An excerpt: (§1) FIGS. 23A-H is a set of curves showing the tumor growth of mice treated with PBS (Control, circles) or guanabenz (GBZ, triangles) in different tumor models: such as mammary gland tumor (FIG. 23A), hepatocellular carcinoma (FIG. 23B), T cell lymphoma (FIG. 23C), lung cancer (FIG. 23D), myeloma (FIG. 23E), mammary adenocarcinoma (FIG. 23F), renal cancer (FIG. 23G) and fibrosarcoma (FIG. 23H).

The subject of a further experiment is renal cancer. Briefly: Tumor model: renal cancer. The format is in vivo, mice. Conditions: renal cancer (FIG. 22G, 23G).
From the text: as §1

A further experiment has as its system fibrosarcoma. Briefly: Tumor model: fibrosarcoma. The format is in vivo, mice. Conditions: fibrosarcoma (FIG. 22H, 23H).
From the text: as §1

Each structure is given as a SMILES string. “Also recorded” adds a separate entry of the source. Where two headings read alike, the source gives them in different places.

`Clc1cccc(Cl)c1N=C1NCCN1` [clonidine]: the tumor growth entry in the experiment on CT26 colon cancer was “inhibited CT26 colon cancer tumor growth”; with lung cancer it was “strong tumor inhibition”; in the experiment on renal cancer, “strong tumor inhibition”; in the experiment on fibrosarcoma, “strong tumor inhibition”. Moreover, the “tumor infiltration of CD8+T cells (%CD8+T cells among total CD45+T cells)” value in experiment [1] (TiRP mice with ACT, 5 mg/kg i.p. daily from day of ACT, tumor size around 500 mm^3) was “increase of tumor infiltration of CD8+T cells; also recorded: increased”. Further, the “tumor growth, combined with ACT” value in experiment [1] (TiRP mice, ACT of 10^7 P1A-specific CD8+T cells, 5 mg/kg i.p. daily) is “strongly sensitized immune-resistant autochthonous melanoma tumors (TiRP) to adoptive cell transfer (ACT); also recorded: efficiently control the growth; also recorded: inhibited the tumor growth”. Besides, the results for the “platelet (PLT) counts” value in experiment [2] and in experiment [2] (listed as Clonidine) were “significantly reduces the platelet (PLT) counts” and “reduces the platelet count”, respectively.
